Data on one compound can be found in patent publication US8759513B2, “Polymorphic form of rifaximin and process for its preparation” (Sequent Scientific Limited, priority 2011, dated 2014).

This data set is described as follows: Stability of amorphous rifaximin on storage, followed by PXRD spectroscopy. It is filed as physicochemical. The following applies: as indicated by the PXRD spectroscopy.

Consider `CO[C@H]1/C=C/O[C@@]2(C)Oc3c(C)c(O)c4c(O)c(c5c(nc6cc(C)ccn65)c4c3C2=O)NC(=O)/C(C)=C\C=C\[C@H](C)[C@H](O)[C@@H](C)[C@@H](O)[C@@H](C)[C@H](OC(C)=O)[C@@H]1C` [amorphous rifaximin, (2S,16Z,18E,20S,21S,22R,23R,24R,25S,26S,27S,28E)-5,6,21,23,25-pentahydroxy-27-methoxy-2,4,11,16,20,22,24,26-octamethyl-2,7-(epoxypentadeca-[1,11,13]trienimino)benzofuro[4,5-e]pyrido[1,2-α]-benzimidazole-1,15(2H)-dione, 25-acetate], for which, for the setting “ambient humidity”, the “effect of external parameters such as ambient humidity” value is recorded as “unaffected”. The “chemical and polymorphic stability on storage” value (on storage) is “very stable chemically and polymorphically on storage”.
